# Source: patent US7799530B2, “Genetic polymorphisms associated with cardiovascular disorders and drug response, methods of detection and uses thereof” (Celera Corporation, priority 2005, dated 2010)
# Legend:
# [1] = test system: animal models and myocyte cultures; settings: compared to other hydrophobic statins; cited from earlier work
# [2] = test system: recurrent myocardial infarction (RMI) in CARE patients; test: CARE trial: recurrent MI in pravastatin- vs placebo-treated patients stratified by SNP genotype; assay type: in vivo, human; settings: for HR, on-trial MI, Unadjusted: placebo = ref 1.00; for HR, on-trial MI, Adjusted: placebo = ref 1.00, adjusted for age, smoking, hypertension, diabetes, BMI, LDL-C, HDL-C; for OR_dom, risk of RMI / OR_het, risk of RMI / OR_maj, risk of RMI / OR_min, risk of RMI / OR, risk of RMI: placebo- vs. pravastatin-treated patients; for Risk Reduction by Statin (Pravastatin vs. Placebo) OR: odds ratio of recurrent MI, pravastatin- vs placebo-treated, heterozygous carriers of hCV3054799 only
# From the text: In order to identify genetic markers associated with acute coronary events (e.g. MI, stroke, unstable angina, congestive heart failure, etc.) or response to statin treatment for the prevention of coronary events, samples were genotyped in two clinical trials: the Cholesterol and Recurrent Events (CARE) study (a randomized multicentral double-blinded trial on secondary prevention of acute coronary events with pravastatin; Sacks et al., Am. J. Cardiol. 68: 1436-1446[1991]), and the West of Scotland Coronary Prevention Study (WOSCOPS) study (Shepherd et al., N Eng J Med 333 (20), pp. 1301-7, Nov. 16, 1995; Packard et al., N Eng J Med 343 (16), pp. 1148-55, Oct. 19, 2000).
# A well-documented myocardial infarction (MI) was one of the enrollment criteria for entry into the CARE study. Patients were enrolled in the CARE trial from 80 participating study centers. […] Patients were randomized to receive either 40 mg of pravastatin once daily or a matching placebo. The primary endpoint of the trial was death from coronary heart disease and the median duration of follow-up was 5.0 years (range, 4.0 to 6.2 years). All individuals included in the study had signed informed consent forms and the study protocol was approved by the respective Institutional Review Boards (IRBs).
# For genotyping SNPs in CARE patient samples, DNA was extracted from blood samples using conventional DNA extraction methods such as the QIAamp kit from Qiagen. Genotypes were obtained by a method similar to that described by Lannone (M. A. Lannone et al., Cytometry 39(2):131-140 [Feb. 1, 2000]; also described in section “SNP DETECTION REAGENTS,” supra). Briefly, target DNA was amplified by multiplex PCR, the amplified product was submitted to a multiplex oligo ligation assay (OLA), the specific ligated products were hybridized to unique universal “ZIP code” oligomer sequences covalently attached to Luminex xMAP® Multi-Analyte COOH Microspheres, and these hybridization products/microspheres were detected in a rapid automated multiplex system using the Luminex 100 instrument. Alternatively, allele specific primers were designed for detecting each SNP and genotypes were obtained on an ABI PRISM® 7900HT Sequence Detection PCR system (Applied Biosystems) by allele-specific PCR, similar to the method described by Germer et al (Germer S., Holland M. J., Higuchi R. 2000, Genome Res. 10: 258-266). […]
# In analyzing the CARE patients, statistical analysis was performed with SAS version 9. Cox proportional hazard models (Wald tests) were used in CARE to assess the association of genotype with both the risk of incident MI in the placebo arm and the effect of on MI pravastatin compared to placebo in subgroups defined by genotypes. In analyzing the WOSCOPS patients, a conditional logistic regression model was used in WOSCOPS given that the controls had been previously matched to the cases. The column entitled “On-trial MI” lists the number of patients who suffered an RMI during the clinical trial period.
# An additional 175 markers were analyzed in samples from the CARE study (secondary MI prevention trial). […] Of the cases, 150 received placebo treatment and 114 received pravastatin; of the controls, 1290 received placebo and 1359 received pravastatin.
# The genotypes for each SNP were tested for association with RMI. This genotypic test of association (i.e., minor homozygote genotype vs. major, and heterozygote vs. major) was performed separately for placebo-treated patients and for all patients unstratified by treatment group, using the Fisher's exact method. […] The reliability of the OR for each particular SNP is confirmed by its respective 95% confidence interval (CI) and P value, also shown. From Table 14 one can see the association of several SNPs with MI risk when they are present in a Homozygous Minor genotype (association based on an OR>1, the lower limit of the 95% CI>1 and a P value <0.05). […]
# [3] = marker hCV2741051, heterozygous
# [4] = marker hCV2741051, major homozygous
# [5] = marker hCV2741051, minor homozygous
# [6] = marker hCV25745415, heterozygous
# [7] = marker hCV25745415, major homozygous
# [8] = marker hCV25745415, minor homozygous
structure (smiles),measurement,setting,value
CC[C@H](C)C(=O)O[C@H]1C[C@H](O)C=C2C=C[C@H](C)[C@H](CC[C@@H](O)C[C@@H](O)CC(=O)O)[C@H]21 [pravastatin],myopathic potential,[1],low myopathic potential
same,"HR, on-trial MI, Unadjusted",[2]; KIF6 hCV3054799 AA,0.86
same,"HR, on-trial MI, Adjusted",[2]; KIF6 hCV3054799 AA,0.80
same,"HR, on-trial MI, Unadjusted",[2]; KIF6 hCV3054799 GG + GA,0.63
same,"HR, on-trial MI, Adjusted",[2]; KIF6 hCV3054799 GG + GA,0.63
same,"OR_dom, risk of RMI","[2]; marker hCV465412, Dominant",0.50
same,"OR_het, risk of RMI","[2]; marker hCV465412, Heterozygous",0.47
same,"OR_maj, risk of RMI","[2]; marker hCV465412, Major Homozygous",0.80
same,"OR_min, risk of RMI","[2]; marker hCV465412, Minor Homozygous",1.35
same,"OR, risk of RMI","[2]; marker hCV881283, heterozygous",0.19
same,"OR, risk of RMI","[2]; marker hCV881283, major homozygous",0.76
same,"OR, risk of RMI","[2]; marker hCV881283, minor homozygous",0.00
same,"OR, risk of RMI","[2]; marker hCV1603656, heterozygous",0.33
same,"OR, risk of RMI","[2]; marker hCV1603656, major homozygous",0.87
same,"OR, risk of RMI","[2]; marker hCV1603656, minor homozygous",0.00
same,"OR_dom, risk of RMI","[2]; marker hCV2741051, Dominant",1.07
same,"OR, risk of RMI",[2]; [3],1.02
same,"OR_het, risk of RMI",[2]; [3],1.02
same,"OR, risk of RMI",[2]; [4],0.55
same,"OR_maj, risk of RMI",[2]; [4],0.55
same,"OR, risk of RMI",[2]; [5],1.68
same,"OR_min, risk of RMI",[2]; [5],1.68
same,"OR_dom, risk of RMI","[2]; marker hCV3054799, Dominant",0.65
same,"OR_het, risk of RMI","[2]; marker hCV3054799, Heterozygous",0.57
same,"OR_maj, risk of RMI","[2]; marker hCV3054799, Major Homozygous",0.98
same,"OR_min, risk of RMI","[2]; marker hCV3054799, Minor Homozygous",1.00
same,"OR_dom, risk of RMI","[2]; marker hCV7514870, Dominant",0.69
same,"OR_het, risk of RMI","[2]; marker hCV7514870, Heterozygous",0.83
same,"OR_maj, risk of RMI","[2]; marker hCV7514870, Major Homozygous",0.80
same,"OR_min, risk of RMI","[2]; marker hCV7514870, Minor Homozygous",0.37
same,"OR_dom, risk of RMI","[2]; marker hCV11450617, Dominant",0.62
same,"OR_het, risk of RMI","[2]; marker hCV11450617, Heterozygous",0.61
same,"OR_maj, risk of RMI","[2]; marker hCV11450617, Major Homozygous",0.78
same,"OR_min, risk of RMI","[2]; marker hCV11450617, Minor Homozygous",0.68
same,"OR, risk of RMI","[2]; marker hCV12107274, heterozygous",0.78
same,"OR, risk of RMI","[2]; marker hCV12107274, major homozygous",0.55
same,"OR, risk of RMI","[2]; marker hCV12107274, minor homozygous",1.75
same,"OR, risk of RMI","[2]; marker hCV15965459, heterozygous",0.35
same,"OR, risk of RMI","[2]; marker hCV15965459, major homozygous",0.82
same,"OR, risk of RMI","[2]; marker hCV15965459, minor homozygous",0.95
same,"OR_dom, risk of RMI","[2]; marker hCV15973230, Dominant",0.91
same,"OR_het, risk of RMI","[2]; marker hCV15973230, Heterozygous",0.91
same,"OR_maj, risk of RMI","[2]; marker hCV15973230, Major Homozygous",0.60
same,"OR_min, risk of RMI","[2]; marker hCV15973230, Minor Homozygous",0.71
same,"OR, risk of RMI","[2]; marker hCV15974589, heterozygous",0.67
same,"OR, risk of RMI","[2]; marker hCV15974589, major homozygous",0.43
same,"OR, risk of RMI","[2]; marker hCV15974589, minor homozygous",1.51
same,"OR, risk of RMI","[2]; marker hCV16054991, heterozygous",0.53
same,"OR, risk of RMI","[2]; marker hCV16054991, major homozygous",0.88
same,"OR, risk of RMI","[2]; marker hCV16054991, minor homozygous",0.43
same,"OR, risk of RMI","[2]; marker hCV25472673, heterozygous",0.61
same,"OR, risk of RMI","[2]; marker hCV25472673, major homozygous",1.13
same,"OR, risk of RMI","[2]; marker hCV25472673, minor homozygous",0.49
same,"OR, risk of RMI","[2]; marker hCV25623506, heterozygous",3.29
same,"OR, risk of RMI","[2]; marker hCV25623506, major homozygous",0.65
same,"OR, risk of RMI","[2]; marker hCV25623506, minor homozygous",0.00
same,"OR_dom, risk of RMI","[2]; marker hCV25745415, Dominant",0.92
same,"OR, risk of RMI",[2]; [6],0.73
same,"OR_het, risk of RMI",[2]; [6],0.73
same,"OR, risk of RMI",[2]; [7],0.56
same,"OR_maj, risk of RMI",[2]; [7],0.56
same,"OR, risk of RMI",[2]; [8],5.87
same,"OR_min, risk of RMI",[2]; [8],5.87
same,"OR, risk of RMI","[2]; marker hCV25749177, heterozygous",0.74
same,"OR, risk of RMI","[2]; marker hCV25749177, major homozygous",0.57
same,"OR, risk of RMI","[2]; marker hCV25749177, minor homozygous",2.81
same,"OR_dom, risk of RMI","[2]; marker hCV25963691, Dominant",0.64
same,"OR_het, risk of RMI","[2]; marker hCV25963691, Heterozygous",0.62
same,"OR_maj, risk of RMI","[2]; marker hCV25963691, Major Homozygous",0.71
same,"OR_min, risk of RMI","[2]; marker hCV25963691, Minor Homozygous",0.72
same,Risk Reduction by Statin (Pravastatin vs. Placebo) OR,[2],approximately 0.5
same,Risk Reduction by Statin (Pravastatin vs. Placebo) OR,[2]; listed as Pravastatin,0.54
